In patent US20160257697A1, “THIOPHENE-SUBSTITUTED TETRACYCLIC COMPOUNDS AND METHODS OFUSE THEREOF FOR THE TREATMENT OF VIRAL DISEASES” (priority 2013, published 2016):
Like-named read-outs stand apart in the source and are kept apart here.

What was measured:
Test in all cases: microbe, parasite or virus in culture
Assay type in all cases: cell-based, Hepatitis C virus (HCV)
HCV replicon 1AY93H = conditions: read-out: 1A Y93H IC50, Replicon Assay A
How it was run: (§1)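 Read-out is replicon RNA per cell by real-time RT-PCR, normalised to cyclophilin mRNA amplified in the same well. Cells were exposed to compound for 3 days at 2000 cells/well in medium with 5% fetal bovine serum and 0.5% DMSO.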

HCV replicon 1A = conditions: Replicon Assay A
How it was run: as §1

HCV replicon 2B = conditions: read-out: 2B IC50, Replicon Assay A
How it was run: as §1

SMILES | IC50 (HCV replicon 1AY93H; replicon 1AY93H) [nM] | IC50 (HCV replicon 1A; replicon 1A) [nM] | IC50 (HCV replicon 2B; replicon 2B) [nM] | IC50 (HCV replicon 1A; Hepatitis C virus, replicon 1A) [nM] | IC50 (HCV replicon 1AY93H; HCV replicon 1A Y93H) [nM] | IC50 (HCV replicon 1A; HCV replicon 1A) [nM] | IC50 (HCV replicon 2B; HCV replicon 2B) [nM]
COC(=O)N[C@H](C(=O)N1CCC[C@H]1c1ncc(-c2cc(F)c3c(c2)OC(c2ccc(CC4CC4)s2)n2c-3cc3cc(-c4cnc([C@@H]5C[C@H]6C[C@H]6N5C(=O)[C@@H](NC(=O)OC)C(C)C)[nH]4)ccc32)[nH]1)C(C)C (single isomer, unassigned) [Compound 390] | 0.314 | 0.003 | 0.754 |  |  |  | 
COC(=O)NC(C(=O)N1CCC[C@H]1c1ncc(-c2cc(F)c3c(c2)OC(c2ccc(C4CC4)s2)n2c-3cc3cc(-c4cnc([C@@H]5CCCN5C(=O)[C@@H](NC(=O)OC)C(C)C)[nH]4)ccc32)[nH]1)C(C)(C)F (single isomer, unassigned) [Compound 70] | 10.5 |  | 24.2 | 0.0188 |  |  | 
COC(=O)NC(C(=O)N1CCC[C@H]1c1ncc(-c2ccc3c(c2)cc2n3C(c3ccc(C4CC4)s3)Oc3cc(-c4cnc([C@@H]5CCCN5C(=O)[C@@H](NC(=O)OC)C(C)C)[nH]4)cc(F)c3-2)[nH]1)C1CCO[C@H](C)C1 (single isomer, unassigned) [Compound 137] | 0.28 | 0.0018 | 0.37 |  |  |  | 
COC(=O)N[C@H](C(=O)N1CCC[C@H]1c1ncc(-c2cc(F)c3c(c2)OC(c2ccc(C(=O)N(C)C)s2)n2c-3cc3cc(-c4cnc([C@@H]5CCCN5C(=O)[C@@H](NC(=O)OC)C(C)C)[nH]4)ccc32)[nH]1)C(C)C (single isomer, unassigned) [Compound 103] | 5.15 |  | 1.71 | 0.0056 |  |  | 
COC(=O)NC(C(=O)N1CCC[C@H]1c1ncc(-c2cc(F)c3c(c2)OC(c2ccc(C4CC4)s2)n2c-3cc3cc(-c4cnc([C@@H]5CCCN5C(=O)[C@@H](NC(=O)OC)C(C)C)[nH]4)ccc32)[nH]1)C1CCOC(C)(C)C1 (single isomer, unassigned) [Compound 210] | 0.52 | 0.0018 | 0.33 |  |  |  | 
CCc1ccc(C2Oc3cc(-c4cnc([C@@H]5CCCN5C(=O)C(NC(=O)OC)C5CCOC(C)(C)C5)[nH]4)cc(F)c3-c3cc4cc(-c5cnc([C@@H]6CCCN6C(=O)C(NC(=O)OC)C6CCOC(C)(C)C6)[nH]5)ccc4n32)s1 (single isomer, unassigned) [Compound 297] | 8.37 | 0.0889 | 6.68 |  |  |  | 
COC(=O)NC(C(=O)N1CCC[C@H]1c1ncc(-c2ccc3c(c2)cc2n3C(c3ccc(C4CC4)s3)Oc3cc(-c4cnc([C@@H]5C[C@H]6C[C@H]6N5C(=O)[C@@H](NC(=O)OC)C(C)C)[nH]4)cc(F)c3-2)[nH]1)C1C[C@@H](C)O[C@@H](C)C1 (single isomer, unassigned) [Compound 537] |  |  |  |  | 0.114 | 0.00398 | 1.1
COC(=O)N[C@H](C(=O)N1CCC[C@H]1c1nc(-c2ccc3c(c2)OC(c2ccc(C)s2)n2c-3cc3cc(-c4c[nH]c([C@@H]5NCCN5C(=O)[C@@H](NC(=O)OC)C(C)C)n4)ccc32)c[nH]1)C(C)C (single isomer, unassigned) [Compound 701] |  |  |  |  | 0.085 | 0.003 | 0.15
COC(=O)NC(C(=O)N1CCC[C@H]1c1ncc(-c2ccc3c(c2)cc2n3C(c3ccc(C4CC4)s3)Oc3cc(-c4cnc([C@@H]5CCCN5C(=O)[C@@H](NC(=O)OC)C(C)C)[nH]4)cc(F)c3-2)[nH]1)C1C2COCC21 (single isomer, unassigned) [Compound 338] | 0.357 |  | 1.52 | 0.0024 |  |  | 
COC(=O)NC(C(=O)N1CCC[C@H]1c1ncc(-c2ccc3c(c2)cc2n3C(c3ccc(C4CC4)s3)Oc3cc(-c4cnc([C@@H]5CCCN5C(=O)[C@@H](NC(=O)OC)C(C)C)[nH]4)cc(F)c3-2)[nH]1)C1C[C@@H](C)O[C@H](C)C1 (single isomer, unassigned) [Compound 191] | 0.32 | 0.0014 | 0.89 |  |  |  | 
CCc1ccc(C2Oc3cc(-c4cnc([C@@H]5CCCN5C(=O)C(NC(=O)OC)C5CCOC(C)(C)C5)[nH]4)cc(F)c3-c3cc4cc(-c5cnc([C@@H]6CCCN6C(=O)C(NC(=O)OC)C6CCOC(C)(C)C6)[nH]5)ccc4n32)s1 (single isomer, unassigned) [Compound 298] | 1.22 | 0.0784 | 2.09 |  |  |  | 
COC(=O)NC(C(=O)N1CCC[C@H]1c1ncc(-c2ccc3c(c2)cc2n3C(c3ccc(C(C)C)s3)Oc3cc(-c4cnc([C@@H]5CCCN5C(=O)[C@@H](NC(=O)OC)C(C)C)[nH]4)cc(F)c3-2)[nH]1)C1CCOC(C)(C)C1 (single isomer, unassigned) [Compound 236] | 0.18 | 0.0017 | 0.24 |  |  |  | 
COC(=O)NC(C(=O)N1CCC[C@H]1c1ncc(-c2ccc3c(c2)cc2n3C(c3ccc(C4CC4)s3)Oc3cc(-c4cnc([C@@H]5CCCN5C(=O)[C@@H](NC(=O)OC)C5CCOCC5)[nH]4)cc(F)c3-2)[nH]1)C(C)(C)F (single isomer, unassigned) [Compound 175] | 9.03 | 0.0077 | 10.5 |  |  |  | 
COC(=O)NC(C(=O)N1CCC[C@H]1c1ncc(-c2ccc3c(c2)cc2n3C(c3ccc(C4CC4)s3)Oc3cc(-c4cnc([C@@H]5CCCN5C(=O)[C@@H](NC(=O)OC)C(C)C)[nH]4)cc(F)c3-2)[nH]1)C1CN(C(=O)C2CC2)C1 (single isomer, unassigned) [Compound 269] | 0.28 | 0.0026 | 0.25 |  |  |  | 
CCc1ccc(C2Oc3cc(-c4cnc([C@@H]5CCCN5C(=O)C(NC(=O)OC)C5C[C@@H](C)O[C@@H](C)C5)[nH]4)cc(F)c3-c3cc4cc(-c5cnc([C@@H]6CCCN6C(=O)[C@@H](NC(=O)OC)C(C)C)[nH]5)ccc4n32)s1 (single isomer, unassigned) [Compound 157] | 2.32 | 0.0021 | 2.8 |  |  |  | 
COC(=O)N[C@H](C(=O)N1CCC[C@H]1c1ncc(-c2cc(F)c3c(c2)OC(c2ccc(OC)s2)n2c-3cc3cc(-c4cnc([C@@H]5CCCN5C(=O)[C@@H](NC(=O)OC)C(C)C)[nH]4)ccc32)[nH]1)C(C)C (single isomer, unassigned) [Compound 19] | 0.5 |  | 1.88 | 0.0016 |  |  | 
COC(=O)NC(C(=O)N1CCC[C@H]1c1ncc(-c2cc(F)c3c(c2)OC(c2ccc(C4CC4)s2)n2c-3cc3cc(-c4cnc([C@@H]5CCCN5C(=O)[C@@H](NC(=O)OC)C(C)C)[nH]4)ccc32)[nH]1)C1CCOC(C)(C)C1 (single isomer, unassigned) [Compound 217] | 0.18 | 0.003 | 0.39 |  |  |  | 
COC(=O)N[C@H](C(=O)N1CCC[C@H]1c1cnc(-c2ccc3c(c2)cc2n3C(c3cc4ccccc4s3)Oc3cc(-c4cnc([C@@H]5CCCN5C(=O)[C@@H](NC(=O)OC)C5CCOCC5)[nH]4)ccc3-2)[nH]1)C1CCOCC1 (single isomer, unassigned) [Compound 809] |  |  |  |  | 0.82 | 0.016 | 4.2
COC(=O)N[C@H](C(=O)N1CCC[C@H]1c1cnc(-c2ccc3c(c2)cc2n3C(c3cc4ccccc4s3)Oc3cc(-c4cnc([C@@H]5CCCN5C(=O)[C@@H](NC(=O)OC)C5CCOCC5)[nH]4)ccc3-2)[nH]1)C1CCOCC1 (single isomer, unassigned) [Compound 810] |  |  |  |  | 0.018 | 0.004 | 0.005
